Data reported in ChEMBL document CHEMBL5137065, “Recent Advances with KDM4 Inhibitors and Potential Applications” (J Med Chem, 2022).
Blank lines part the entries; values can stand above or below the molecule they belong to.

Experiments:
[1] = molecular target: T1, Lysine-specific demethylase 4B (Homo sapiens, UniProt O94953); experiment: Inhibition of KDM4B (unknown origin) using H3K9me3 as substrate and measured by LANCE TR-FRET assay
T1 sequence (O94953 whole entry): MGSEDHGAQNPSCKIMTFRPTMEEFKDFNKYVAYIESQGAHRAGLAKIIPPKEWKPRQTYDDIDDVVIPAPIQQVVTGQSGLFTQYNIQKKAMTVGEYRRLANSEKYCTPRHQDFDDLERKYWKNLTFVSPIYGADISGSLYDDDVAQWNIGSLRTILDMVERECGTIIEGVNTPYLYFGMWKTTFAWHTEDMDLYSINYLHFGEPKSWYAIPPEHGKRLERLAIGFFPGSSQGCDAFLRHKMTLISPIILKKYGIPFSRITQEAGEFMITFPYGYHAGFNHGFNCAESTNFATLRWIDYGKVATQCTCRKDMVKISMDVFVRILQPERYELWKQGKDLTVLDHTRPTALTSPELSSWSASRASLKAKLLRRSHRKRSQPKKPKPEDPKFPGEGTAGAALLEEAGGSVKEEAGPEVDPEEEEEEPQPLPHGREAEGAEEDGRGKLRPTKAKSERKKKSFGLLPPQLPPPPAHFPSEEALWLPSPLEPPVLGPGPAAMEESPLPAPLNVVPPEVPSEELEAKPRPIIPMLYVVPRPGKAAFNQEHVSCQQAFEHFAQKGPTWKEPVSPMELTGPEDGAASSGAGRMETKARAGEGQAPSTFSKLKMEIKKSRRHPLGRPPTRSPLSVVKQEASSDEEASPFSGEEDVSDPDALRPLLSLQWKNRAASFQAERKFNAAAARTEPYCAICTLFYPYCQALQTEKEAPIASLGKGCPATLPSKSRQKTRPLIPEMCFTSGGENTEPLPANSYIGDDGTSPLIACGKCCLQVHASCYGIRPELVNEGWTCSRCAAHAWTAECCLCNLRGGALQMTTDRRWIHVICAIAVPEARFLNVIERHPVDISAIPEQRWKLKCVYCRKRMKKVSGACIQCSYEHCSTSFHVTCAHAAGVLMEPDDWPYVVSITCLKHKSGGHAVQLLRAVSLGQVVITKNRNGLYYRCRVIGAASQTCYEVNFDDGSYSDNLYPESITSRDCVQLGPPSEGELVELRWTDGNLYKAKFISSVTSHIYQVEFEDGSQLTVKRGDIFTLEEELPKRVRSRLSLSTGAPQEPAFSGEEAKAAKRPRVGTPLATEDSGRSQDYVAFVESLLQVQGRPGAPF

[2] = molecular target: T2, Lysine-specific demethylase 4A (Homo sapiens, UniProt O75164); experiment: Inhibition of KDM4A (unknown origin) using H3K9me3 as substrate and measured by LANCE TR-FRET assay
T2 sequence (O75164 whole entry): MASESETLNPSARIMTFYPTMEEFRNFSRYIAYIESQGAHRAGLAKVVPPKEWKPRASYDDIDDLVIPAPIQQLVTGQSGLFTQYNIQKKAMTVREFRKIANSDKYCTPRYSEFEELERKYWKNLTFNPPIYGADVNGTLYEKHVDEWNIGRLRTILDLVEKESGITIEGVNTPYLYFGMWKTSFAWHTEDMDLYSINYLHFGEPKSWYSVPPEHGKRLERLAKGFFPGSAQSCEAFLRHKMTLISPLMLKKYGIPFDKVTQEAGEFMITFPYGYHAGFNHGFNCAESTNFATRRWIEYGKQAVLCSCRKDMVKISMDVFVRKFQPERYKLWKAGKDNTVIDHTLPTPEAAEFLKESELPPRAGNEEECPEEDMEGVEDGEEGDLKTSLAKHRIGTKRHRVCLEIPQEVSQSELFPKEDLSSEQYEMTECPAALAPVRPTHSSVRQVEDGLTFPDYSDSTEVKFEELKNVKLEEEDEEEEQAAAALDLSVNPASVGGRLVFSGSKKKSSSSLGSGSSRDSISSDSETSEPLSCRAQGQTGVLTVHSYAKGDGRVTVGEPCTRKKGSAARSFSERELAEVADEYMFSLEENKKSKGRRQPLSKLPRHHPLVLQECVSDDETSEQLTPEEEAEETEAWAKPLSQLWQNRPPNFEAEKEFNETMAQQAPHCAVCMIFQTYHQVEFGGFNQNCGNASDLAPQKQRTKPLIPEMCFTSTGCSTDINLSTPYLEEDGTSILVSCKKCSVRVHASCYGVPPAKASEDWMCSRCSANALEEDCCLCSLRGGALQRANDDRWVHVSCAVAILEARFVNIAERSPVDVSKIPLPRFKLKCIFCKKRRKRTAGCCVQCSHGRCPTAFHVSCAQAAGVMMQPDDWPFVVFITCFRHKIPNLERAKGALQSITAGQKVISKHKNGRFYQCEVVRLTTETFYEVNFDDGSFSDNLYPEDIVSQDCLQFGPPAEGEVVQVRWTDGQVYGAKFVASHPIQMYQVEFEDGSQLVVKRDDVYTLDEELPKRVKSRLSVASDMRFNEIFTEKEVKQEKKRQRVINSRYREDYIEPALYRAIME

[3] = molecular target: T3, Lysine-specific demethylase 4D (Homo sapiens, UniProt Q6B0I6); experiment: Inhibition of KDM4D (unknown origin) using H3K9me3 as substrate and measured by LANCE TR-FRET assay
T3 sequence (Q6B0I6 whole entry): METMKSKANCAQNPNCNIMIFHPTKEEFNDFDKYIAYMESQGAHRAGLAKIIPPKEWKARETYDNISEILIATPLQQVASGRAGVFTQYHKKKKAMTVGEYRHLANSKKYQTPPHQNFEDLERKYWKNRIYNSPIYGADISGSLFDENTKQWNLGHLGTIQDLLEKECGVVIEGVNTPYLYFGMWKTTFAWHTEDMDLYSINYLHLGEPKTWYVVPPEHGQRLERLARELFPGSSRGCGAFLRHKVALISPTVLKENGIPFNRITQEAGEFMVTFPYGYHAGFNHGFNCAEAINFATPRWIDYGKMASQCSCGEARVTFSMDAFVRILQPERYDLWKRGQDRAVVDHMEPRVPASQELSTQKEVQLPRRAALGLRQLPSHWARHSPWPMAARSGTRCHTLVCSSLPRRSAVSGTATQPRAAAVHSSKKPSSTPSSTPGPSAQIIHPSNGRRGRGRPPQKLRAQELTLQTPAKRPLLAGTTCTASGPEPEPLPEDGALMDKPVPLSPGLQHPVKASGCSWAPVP

[4] = molecular target: T4, Lysine-specific demethylase 4C (Homo sapiens, UniProt Q9H3R0); experiment: Inhibition of N-terminal GST-tagged human KDM4C (2 to 372 residues) expressed in baculovirus-infected Sf9 cells measured by high-throughput mass spectrometry assay
T4 sequence (Q9H3R0 whole entry): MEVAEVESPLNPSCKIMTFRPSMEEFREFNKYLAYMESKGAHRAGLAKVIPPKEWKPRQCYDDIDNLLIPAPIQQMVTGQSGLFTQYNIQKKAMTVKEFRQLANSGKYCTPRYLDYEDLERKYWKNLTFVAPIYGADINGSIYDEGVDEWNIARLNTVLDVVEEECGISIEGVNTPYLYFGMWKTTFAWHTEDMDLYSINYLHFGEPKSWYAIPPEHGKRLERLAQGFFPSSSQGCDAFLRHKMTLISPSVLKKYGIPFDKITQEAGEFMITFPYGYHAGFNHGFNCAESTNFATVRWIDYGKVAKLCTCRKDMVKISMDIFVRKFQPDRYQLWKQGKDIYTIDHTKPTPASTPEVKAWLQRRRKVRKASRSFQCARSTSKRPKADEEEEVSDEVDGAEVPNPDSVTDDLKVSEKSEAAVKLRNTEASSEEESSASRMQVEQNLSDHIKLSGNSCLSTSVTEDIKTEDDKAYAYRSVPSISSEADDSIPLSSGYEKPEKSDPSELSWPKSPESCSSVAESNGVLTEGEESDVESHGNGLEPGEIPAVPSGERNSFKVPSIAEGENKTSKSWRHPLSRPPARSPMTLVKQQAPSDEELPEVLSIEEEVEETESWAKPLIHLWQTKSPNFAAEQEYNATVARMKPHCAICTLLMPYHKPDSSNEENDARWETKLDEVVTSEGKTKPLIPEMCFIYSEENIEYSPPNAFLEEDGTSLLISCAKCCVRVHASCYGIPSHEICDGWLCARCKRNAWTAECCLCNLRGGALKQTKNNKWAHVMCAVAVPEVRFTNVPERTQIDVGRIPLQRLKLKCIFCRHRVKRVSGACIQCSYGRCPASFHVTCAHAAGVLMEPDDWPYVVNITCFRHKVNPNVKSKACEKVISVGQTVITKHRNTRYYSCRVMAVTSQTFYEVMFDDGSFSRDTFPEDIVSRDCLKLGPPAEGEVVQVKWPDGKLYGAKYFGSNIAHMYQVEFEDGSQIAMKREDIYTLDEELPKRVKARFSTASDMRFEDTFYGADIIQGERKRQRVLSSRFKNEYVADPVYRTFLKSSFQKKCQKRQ

LNCaP = experiment: Antiproliferative activity against human LNCaP cells measured by Alamarblue assay; assay type: functional
DU-145 = experiment: Antiproliferative activity against human DU-145 cells measured by Alamarblue assay; assay type: functional
[5] = Inhibition of KDM4 (unknown origin) measured by ESI-TOF MS assay; design: species or system Homo sapiens
[6] = molecular target: T1, Lysine-specific demethylase 4B; experiment: Inhibition of KDM4B (unknown origin) measured by ELISA assay
[7] = molecular target: T2, Lysine-specific demethylase 4A; experiment: Inhibition of human KDM4A (1 to 350 residues) measured by ELISA assay
[8] = molecular target: T1, Lysine-specific demethylase 4B; experiment: Inhibition of GST-tagged KDM4B (unknown origin) using H3K9(me3)-biotin peptide as substrate incubated for 30 mins and measured after 15 mins by TR-FRET assay
[9] = Antiproliferative activity against human neuroblastoma cells after 3 days by PrestoBlue assay; assay type: functional, cell-based; settings: Neuroblastoma cell, 72 h
[10] = Inhibition of KDM4 in human KYSE-150 cells assessed as induction of H3K9me3 accumulation measured by immunostaining method; assay type: cell-based, KYSE-150 cell line
[11] = Inhibition of KDM4 in human MCF7 cells assessed as induction of H3K9me3 accumulation measured by immunostaining method; assay type: cell-based
KYSE-150 cell line = experiment: Growth inhibition of human KYSE-150 cells measured after 48 hrs; assay type: functional
[12] = molecular target: T5, Lysine-specific demethylase 4E (Homo sapiens, UniProt B2RXH2)
T5 sequence (B2RXH2 whole entry): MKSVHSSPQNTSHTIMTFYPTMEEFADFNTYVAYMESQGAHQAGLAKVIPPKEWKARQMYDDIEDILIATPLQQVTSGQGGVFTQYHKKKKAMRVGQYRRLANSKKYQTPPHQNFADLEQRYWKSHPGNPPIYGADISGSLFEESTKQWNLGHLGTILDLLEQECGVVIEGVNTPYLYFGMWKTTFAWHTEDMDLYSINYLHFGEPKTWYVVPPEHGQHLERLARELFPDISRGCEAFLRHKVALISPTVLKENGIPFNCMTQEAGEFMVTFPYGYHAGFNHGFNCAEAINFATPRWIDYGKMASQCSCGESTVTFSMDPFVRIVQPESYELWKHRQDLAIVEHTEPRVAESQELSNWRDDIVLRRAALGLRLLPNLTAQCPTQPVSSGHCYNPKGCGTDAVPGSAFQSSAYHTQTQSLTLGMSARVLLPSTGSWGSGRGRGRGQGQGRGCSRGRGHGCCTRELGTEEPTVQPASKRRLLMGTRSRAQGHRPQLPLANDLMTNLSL

[13] = molecular target: T2, Lysine-specific demethylase 4A; experiment: Inhibition of KDM4A (unknown origin) measured by AlphaLisa-based screening assay
[14] = molecular target: T3, Lysine-specific demethylase 4D; experiment: Inhibition of KDM4D (unknown origin) measured by AlphaLisa-based screening assay
[15] = Lipophilicity, logD of compound at pH 7.4 by Chromatography; assay type: physicochemical; settings: buffer
[16] = molecular target: T4, Lysine-specific demethylase 4C; experiment: Inhibition of KDM4C (unknown origin) using H3K9me3 as substrate and measured by antibody-based assay
[17] = molecular target: T2, Lysine-specific demethylase 4A; experiment: Inhibition of recombinant HQ5-Halo-tagged KDM4A tudor domain (unknown origin) measured by fluorescence polarization assay
[18] = molecular target: T4, Lysine-specific demethylase 4C; experiment: Inhibition of KDM4C (unknown origin) using H3K9me3 as substrate and measured by LANCE TR-FRET assay

IC50 [1]: 0.035 µM
IC50 [2]: 0.035 µM
IC50 [3]: 0.035 µM
Compound: CN(c1ccccc1)c1ccc2c(c1)CCC[C@H]2CNc1cnccc1C(=O)O

Ki [4]: 0.031 µM
Compound: O=C(O)c1ccnc(-c2ccc[nH]2)c1

GI50 (LNCaP): 8 µM
GI50 (DU-145): 8 µM
Compound: Cc1nn(-c2nc3ccccc3[nH]2)c(O)c1-c1ccccc1

IC50 [5]: 4.3 µM
Compound: O=C(O)/C=C/C(=O)N(O)CCCCNCc1ccc(COC(=O)Nc2cccc3ccccc23)cc1

IC50 [6]: 0.29 µM
IC50 [7]: 0.29 µM
Compound: Clc1ccc(N/N=C(\c2ccccc2)c2ccccn2)nc1

IC50 [8]: 3.8 µM
Compound: Cc1cc(C2CCCCC2)n(O)c(=O)c1 [CICLOPIROX]
IC50 [9]: 0.2 µM

EC50 [10]: 8.6 µM
EC50 [11]: 6.3 µM
Compound: COC(=O)/C=C/C(=O)N(O)CCCCNCc1ccc(COC(=O)Nc2cccc3ccccc23)cc1
GI50 (KYSE-150 cell line): 5.1 µM

IC50 [12]: 28.4 µM
Compound: CC(/C=C/C(=O)NO)=C\[C@@H](C)C(=O)c1ccc(N(C)C)cc1 [TRICHOSTATIN]

IC50 [13]: > 100 µM
IC50 [14]: 0.023 µM
Compound: CC(C)(C)OC(=O)C[C@@H]1CCN(C(c2ccc(-c3ccncc3)cc2)c2cc3c(cc2O)OCO3)C1 (stereo partly drawn)

chromatographic logD [15]: 1.8
Compound: O=c1[nH]c(Oc2cnn(Cc3ccccc3)c2)nc2cnccc12

IC50 [16]: 30 µM
Compound: CC(C)C(=O)NC(c1ccco1)c1ccc2cccnc2c1O (stereo not drawn)

IC50 [17]: 26 µM
Compound: CCCCc1oc2ccccc2c1C(=O)c1cc(I)c(OCCN)c(I)c1

IC50 [17]: 26 µM
Compound: CCCCc1oc2ccccc2c1C(=O)c1cc(I)c(OCC[N+](C)(C)C)c(I)c1

IC50 [18]: 1.4 µM
Compound: CNc1cnccc1C(=O)O

chromatographic logD [15]: 0.1
Compound: O=C(O)c1ccncc1NCc1ccco1
